Patent publication US10407445B2, “Hepatitis C virus inhibitors” (ENANTA PHARMACEUTICALS, INC., priority 2013, dated 2019)

Columns and labels:
Format in all cases: cell-based
Conditions in all cases: Hepatitis C virus
GT2a-2a-J6 replicon = assay: Stable replicon assay, comparison to daclatasvir, GT2a-2a-J6
Source text: (§1) The plasmid pSG-hRlucNeo-JFH1 was generated from pSG-Neo-JFH1 (Kato et al. 2003, Gastroentrology 125:1808-1817). A fragment containing the JFH-1 5′ NTR-hRluc-Neo gene and two unique restriction sites (AgeI and PmeI) was synthesized (Integrated DNA Technologies, Coralville, Iowa). The resulting plasmid was digested with AgeI and PmeI and the excised fragment (5′NTR-hRluc-Neo) was ligated into pSG-Neo-JFH1 digested with the same enzymes to generate pSG-hRlucNeo-JFH1. To allow expression of heterologous NS5A sequences, an NS5A shuttle vector was generated from pSG-Neo-JFH1, in which the entire coding sequence of NS5A plus the first eight codons of NS5B were replaced with an AfeI restriction site. This was done by Infusion cloning (Clontech, Mountain View, Calif.) from two PCR products that were generated using pSG-Neo-JFH1 as a template and the following primer pairs: […]
(§2) Stable HCV replicon cell lines were grown in complete media (Dulbecco's modified Eagle medium [DMEM], 2 mM L-glutamine, 0.1 mM essential amino acids, 1 mM sodium pyruvate, 10% fetal bovine serum) with the addition 500 μg/ml […] (G418). […] For stable and transient replicon assays, luciferase activity of compound-treated cells was measured relative to DMSO-treated cells after 72 h incubation using RENILLA-GLO™ Luciferase Assay (Promega). […]

GT2a-2b-J8 replicon = assay: Stable replicon assay, comparison to daclatasvir, GT2a-2b-J8
Source text: as §1, §2

GT2a-6a-EUKH2 replicon = assay: Stable replicon assay, comparison to daclatasvir, GT2a-6a-EUKH2
Source text: The plasmid pSG-hRlucNeo-JFH1 was generated from pSG-Neo-JFH1 (Kato et al. 2003, Gastroentrology 125:1808-1817). A fragment containing the JFH-1 5′ NTR-hRluc-Neo gene and two unique restriction sites (AgeI and PmeI) was synthesized (Integrated DNA Technologies, Coralville, Iowa). The resulting plasmid was digested with AgeI and PmeI and the excised fragment (5′NTR-hRluc-Neo) was ligated into pSG-Neo-JFH1 digested with the same enzymes to generate pSG-hRlucNeo-JFH1. To allow expression of heterologous NS5A sequences, an NS5A shuttle vector was generated from pSG-Neo-JFH1, in which the entire coding sequence of NS5A plus the first eight codons of NS5B were replaced with an AfeI restriction site. This was done by Infusion cloning (Clontech, Mountain View, Calif.) from two PCR products that were generated using pSG-Neo-JFH1 as a template and the following primer pairs:
To express GT6a NS5A chimeric sequences a JFH1-based N-terminal NS5A (NS5A residues 2-107) shuttle vector was constructed by Infusion cloning from two PCR products that were generated using pSG-Neo-JFH1 as a template and the following primers: […]
Purified PCR products were inserted into an NsiI/SnaBI digested pSG-Neo-JFH1 vector by Infusion cloning following the manufacturer's instructions to generate pSG-Neo-JFH1-Nterm_5Ashuttle. […]

[1] = test system: HCV genotype 1a replicon, NS5A Y93N; assay: Transient replication assay, GT1a NS5A Y93N
[2] = test system: HCV genotype 1a replicon, NS5A K24E Q30K; assay: Transient replication assay, GT1a NS5A K24E Q30K
[3] = test system: HCV genotype 1a replicon, NS5A M28T Q30H; assay: Transient replication assay, GT1a NS5A M28T Q30H
[4] = test system: HCV genotype 1a replicon, NS5A Q30R H58D; assay: Transient replication assay, GT1a NS5A Q30R H58D
[5] = test system: HCV genotype 1a replicon, NS5A Q30R Y93C; assay: Transient replication assay, GT1a NS5A Q30R Y93C

With `COC(=O)N[C@H](C(=O)N1C[C@]2(CCCOC2)C[C@H]1c1ncc(-c2ccc(-c3ccc4c(ccc5nc([C@@H]6C[C@@H]7CCC[C@@H]7N6C(=O)[C@@H](NC(=O)OC)C(C)C)[nH]c54)c3)cc2)[nH]1)C(C)C` [Compound 16] the EC50 (GT2a-2a-J6 replicon) was 0.49 nM, the EC50 (GT2a-2b-J8 replicon) was 9.9 nM and the EC50 (GT2a-6a-EUKH2 replicon) was 0.014 nM. The EC50 [1] was 19 nM, the EC50 [2] was 7.9 nM and the EC50 [3] was 24 nM. For the same compound, the EC50 [4] was 2.8 nM and the EC50 [5] was 1.4 nM.

With `COC(=O)N[C@H](C(=O)N1CCC[C@H]1c1nc(-c2ccc(-c3ccc(-c4c[nH]c([C@@H]5CCCN5C(=O)[C@@H](NC(=O)OC)C(C)C)n4)cc3)cc2)c[nH]1)C(C)C` [Daclatasvir, reference compound] the EC50 (GT2a-2a-J6 replicon) was 5.8 nM, the EC50 (GT2a-2b-J8 replicon) was 20 nM and the EC50 (GT2a-6a-EUKH2 replicon) was 0.143 nM. The EC50 [1] was 119 nM, the EC50 [2] was 20 nM and the EC50 [3] was 733 nM. It also gave an EC50 [4] of 838 nM and an EC50 [5] of 26 nM.
